Experiments:
[1] = test system: Human immunodeficiency virus 1; assay: Antiviral activity against wild type HIV1 NL4-3 infected in MT4 cells after 6 days by MTT assay; assay type: functional, organism-based; details: Human immunodeficiency virus 1, NL4-3, MT4, 144 h
[2] = Cytotoxicity against human MT4 cells after 6 days by MTT assay; assay type: cell-based
[3] = test system: Human immunodeficiency virus 1; assay: Antiviral activity against wild type HIV1 NL4-3 in HEK293 cells after 48 hrs by replication-deffective luciferase reporter gene-based phenotypic assay; assay type: functional, organism-based; details: Human immunodeficiency virus 1, NL4-3, HEK293, 48 h
Protease = Protease (Human immunodeficiency virus 1, UniProt Q9YQ12); assay: Inhibition of HIV1 protease
Sequence of Protease (Q9YQ12 whole entry): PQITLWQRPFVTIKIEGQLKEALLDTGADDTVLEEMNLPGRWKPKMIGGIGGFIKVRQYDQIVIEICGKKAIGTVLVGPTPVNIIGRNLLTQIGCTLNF

Cathepsin D = Cathepsin D (Homo sapiens, UniProt P07339); assay: Inhibition of human cathepsin D
Sequence of Cathepsin D (P07339 65-162 limits assumed): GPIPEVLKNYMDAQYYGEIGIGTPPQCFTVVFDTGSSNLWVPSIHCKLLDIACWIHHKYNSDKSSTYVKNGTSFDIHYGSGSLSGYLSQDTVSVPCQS
Sequence of Cathepsin D (P07339 169-412 limits assumed): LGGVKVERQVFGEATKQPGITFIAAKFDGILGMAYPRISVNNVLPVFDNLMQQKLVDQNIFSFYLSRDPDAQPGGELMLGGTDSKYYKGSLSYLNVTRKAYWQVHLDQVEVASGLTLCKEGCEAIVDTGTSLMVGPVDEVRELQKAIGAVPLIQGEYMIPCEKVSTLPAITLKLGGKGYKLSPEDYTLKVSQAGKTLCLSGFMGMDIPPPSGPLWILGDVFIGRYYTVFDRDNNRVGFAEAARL

[4] = Inhibition of pig pepsin; parameters: species or system Sus scrofa

Compound | EC50 [1] [nM] | CC50 at 144 h [2] [nM] | EC50 [3] [nM] | Ki (Protease) [nM] | IC50 (Cathepsin D) [nM] | IC50 [4] [nM]
CC(C)(C)NC(=O)[C@@H]1C[C@@H]2CCCC[C@@H]2CN1C[C@@H](O)[C@H](Cc1ccccc1)NC(=O)[C@H](CC(N)=O)NC(=O)c1ccc2ccccc2n1 | 12 | 19000 | 1.8 | – | – | –
CC(C)CN(C[C@@H](O)[C@H](Cc1ccccc1)NC(=O)O[C@H]1CCOC1)S(=O)(=O)c1ccc(N)cc1 | 51 | > 100000 | 10.7 | 0.117 | 15200 | 280
CC(C)(C)NC(=O)[C@@H]1CN(Cc2cccnc2)CCN1C[C@@H](O)C[C@@H](Cc1ccccc1)C(=O)N[C@H]1c2ccccc2C[C@H]1O | 67 | > 100000 | 7.8 | – | – | –
Cc1cccc(C)c1OCC(=O)N[C@@H](Cc1ccccc1)[C@@H](O)C[C@H](Cc1ccccc1)NC(=O)[C@H](C(C)C)N1CCCNC1=O [LOPINAVIR] | 19 | 28000 | 2.8 | – | – | –
CC(C)c1nc(CN(C)C(=O)N[C@H](C(=O)N[C@@H](Cc2ccccc2)C[C@H](O)[C@H](Cc2ccccc2)NC(=O)OCc2cncs2)C(C)C)cs1 [RITONAVIR] | 61 | – | – | – | – | –

Source: ChEMBL document CHEMBL1137017, “In vitro antiviral activity and cross-resistance profile of PL-100, a novel protease inhibitor of human immunodeficiency virus type 1” (Antimicrob Agents Chemother, 2007)
